Data as given in article PMC3610371, “Subamolide B Isolated from Medicinal Plant Cinnamomum subavenium Induces Cytotoxicity in Human Cutaneous Squamous Cell Carcinoma Cells through Mitochondrial and CHOP-Dependent Cell Death Pathways” (Evidence-based Complementary and Alternative Medicine : eCAM, 2013).
Several values for one entry are separate records, joined by “and”; a condition that tells them apart may be missing. Equal entries are not always repeated.

Legend:
SCC12 cells [1] = assay: SCC12 cell viability after 24 h treatment (Supplementary Figure 3); assay type: cell-based; settings: Homo sapiens
Procedure: The effect of subamolide B on cell viability was mostly evaluated using CellTiter 96 AQueous Non-Radioactive Cell Proliferation Assay (MTS assay) kit (Promega, Madison, WI, USA) as previously described. Alternatively, propidium iodide (PI) exclusion assay was employed to determine cell viability. In brief, 4 × 10^5 SCC12 cells were seeded onto 6-well dishes and were subjected to 48 h treatment with subamolide B. Cells were then trypsinized, collected by centrifugation, and washed twice with PBS. Subsequently, cells were stained with 10 μg/ml of PI in PBS for 15 min in the dark, followed by flow cytometry analysis to determine the levels of PI incorporation.
Supplementary Figure Legends (Yang et al.) […]
Supplementary Figure 3. SCC12 cells were resistant to imiquimod-induced cytotoxicity.
SCC12 cells were treated with increasing doses of subamolide B (0~20 µM) (A) or
imiquimod (0~50 µg/ml) (B) for 24 h, and the viability of imiquimod-treated cells was
evaluated thereafter. It is noted that 20 µM (6.897 µg/ml) of subamolide B reduced the
viability of SCC12 cells to 50.47±5.89% compared to the drug-untreated control, whereas
65.00±4.32% of SCC12 cells were still viable after treatment with 50 µg/ml of imiquimod.

[2] = test system: MRC-5 normal lung fibroblasts; assay: Cell viability determination via MTS assay, MRC-5; assay type: cell-based; settings: Homo sapiens, MRC5; MRC-5, 48 h treatment; read-out: IC50 (reduce cell viability by 50%)
Procedure: (§1) The human cutaneous squamous cell carcinoma cell line SCC12 (kindly provided by Prof. Xiaoqi Wang, Northwestern University, USA) was grown in DMEM/F-12 (1 : 1) medium. The human malignant melanoma cell line A375 (ATCC number: CRL-1619), human epidermoid carcinoma cell line A-431 (ATCC number: CRL-1555), and HEK293T cells (ATCC number: CRL-11268) were grown in DMEM medium, whereas the human basal cell carcinoma cell line BCC-1/KMC [25] was cultured in RPMI1640 medium. […]
(§2) The effect of subamolide B on cell viability was mostly evaluated using CellTiter 96 AQueous Non-Radioactive Cell Proliferation Assay (MTS assay) kit (Promega, Madison, WI, USA) as previously described. […]
(§3) Figure 1 Cytotoxic effect of subamolide B on human skin cancer cell lines. […] 14 days later, the extent of subamolide B-mediated repression of SCC12 colony formation was evaluated by the numbers of colonies grown on culture dishes. […] (c) Quantitative analysis of subamolide B-mediated repression of SCC12 colony formation. The numbers of colonies shown in (b) were counted and the results were presented as the percentage of drug-treated groups compared to the drug-free controls. ***P < 0.001.

SCC12 cells [3] = assay: Colony formation assay; assay type: cell-based, human; settings: 24 h treatment, then drug-free media 14 days
Procedure: The effect of subamolide B on the long-term survival of SCC12 cells was assessed using colony formation assay in accordance with the reported procedure. […] […] The colonies composed of 50 or more cells were counted under microscopy. At least three independent assays were performed to calculate the numbers of colonies for statistical analysis.
Figure 1 Cytotoxic effect of subamolide B on human skin cancer cell lines. (a) Dose-dependent cytotoxicity of subamolide B. Human skin cancer cell lines, including A375 (melanoma), A-431 (epidermoid carcinoma), BCC-1/KMC (basal cell carcinoma) and SCC12 (cutaneous squamous cell carcinoma), normal human skin fibroblast cell lines CCD-966SK and WS1, and normal human lung fibroblast cell lines IMR-90, MRC-5, and WI-38 were treated with graded doses of subamolide B (0~20 μM), followed by cell viability determination via MTS assay as described in Section 2. […] 14 days later, the extent of subamolide B-mediated repression of SCC12 colony formation was evaluated by the numbers of colonies grown on culture dishes. […] (c) Quantitative analysis of subamolide B-mediated repression of SCC12 colony formation. The numbers of colonies shown in (b) were counted and the results were presented as the percentage of drug-treated groups compared to the drug-free controls. ***P < 0.001.

SCC12 cells [4] = assay: Annexin-V/propidium iodide dual staining assay (flow cytometry); assay type: cell-based, human; settings: subamolide B 20 μM, 24 h
Procedure: Annexin V/PI dual staining assay was employed to determine the involvement of apoptosis in subamolide B-induced cell death, using ApoTarget Annexin-V-FITC Apoptosis kit (Biosource, Camarillo, CA, USA) as described previously. If required, the pan-caspase inhibitor z-VAD-fmk (20 μM) was added to SCC12 cells 2 h before subamolide B treatment.
Figure 2 Apoptosis is partly responsible for subamolide B-induced SCC12 cell death. ((a), (b)) Subamolide B induces dose- and time-dependent proteolytic processing/activation of caspases-8, -9, -4, and -3. […] Subamolide B (20 μM) was used to treat SCC12 cells for 24 h without or with cotreatment of the pan-caspase inhibitor z-VAD-fmk (20 μM). […] The levels of apoptotic cells were indicated as the percentage of all cell populations as shown in (d). ***P < 0.001. […]

[5] = test system: WI-38 normal lung fibroblasts; assay: Cell viability determination via MTS assay, WI-38; assay type: cell-based; settings: Homo sapiens; WI-38, 48 h treatment; read-out: IC50 (reduce cell viability by 50%)
Procedure: as §1, §2, §3

[6] = test system: IMR-90 normal lung fibroblasts; assay: Cell viability determination via MTS assay, IMR-90; assay type: cell-based; settings: Homo sapiens; IMR-90, 48 h treatment; read-out: IC50 (reduce cell viability by 50%)
Procedure: as §1, §2, §3

A375 (melanoma) cells = assay: Cell viability determination via MTS assay, A375; assay type: cell-based; settings: Homo sapiens, A-375; A375, 48 h treatment; read-out: IC50 (reduce cell viability by 50%)
Procedure: as §1, §2, §3

[7] = test system: SCC12 (cutaneous squamous cell carcinoma) cells; assay: Cell viability determination via MTS assay, SCC12; assay type: cell-based; settings: Homo sapiens; SCC12, 48 h treatment; read-out: IC50 (reduce cell viability by 50%)
Procedure: as §1, §2, §3

[8] = test system: BCC-1/KMC (basal cell carcinoma) cells; assay: Cell viability determination via MTS assay, BCC-1/KMC; assay type: cell-based; settings: Homo sapiens, BCC1, 48 h treatment, read-out: IC50 (reduce cell viability by 50%)
Procedure: as §1, §2, §3

[9] = test system: CCD-966SK normal skin fibroblasts; assay: Cell viability determination via MTS assay, CCD-966SK; assay type: cell-based; settings: Homo sapiens, Skin fibroblast, 48 h treatment, read-out: IC50 (reduce cell viability by 50%)
Procedure: as §1, §2, §3

[10] = test system: A-431 (epidermoid carcinoma) cells; assay: Cell viability determination via MTS assay, A-431; assay type: cell-based; settings: Homo sapiens; A-431, 48 h treatment; read-out: IC50 (reduce cell viability by 50%)
Procedure: as §1, §2, §3

[11] = test system: WS1 normal skin fibroblasts; assay: Cell viability determination via MTS assay, WS1; assay type: cell-based; settings: Homo sapiens, Skin fibroblast; WS1, 48 h treatment; read-out: IC50 (reduce cell viability by 50%)
Procedure: as §1, §2, §3

[12] = test system: ATF6 transcriptional activity; assay: ATF6 transcriptional activity luciferase reporter assay (p5xATF6-GL3); assay type: cell-based; settings: Homo sapiens, SCC12 cells, 24 h, vs drug-untreated control
Text: The ATF6 activity reporter plasmid p5xATF6-GL3 (Addgene plasmid 11976) carries five ATF6 response elements in tandem to drive the expression of firefly luciferase. The human CHOP promoter, which encompasses the region between −947 and +30 (+1 is the transcriptional start site) was PCR-amplified from the genomic DNA of peripheral blood mononuclear cells using the primer pair 5′-[…]-3′ (forward) and 5′-[…]-3′ (reverse). The 978-bp fragment was cloned into the luciferase reporter plasmid pGL4.18 vector (Promega, Madison, WI, USA) to generate the human CHOP promoter reporter plasmid (pCHOP-Luc). Luciferase activity assay was performed using Dual-Luciferase Reporter assay kit (Promega, Madison, WI, USA) as reported previously. Luciferase activity was normalized to Renilla luciferase activity, and final results were expressed as fold induction of the luciferase activity after subamolide B stimulation compared to that of drug-untreated control.
Figure 5 Subamolide B is an ER stress inducer. (a) Subamolide B upregulates signature ER stress markers GRP78 and CHOP. […] The level of CHOP mRNA in SCC12 cells after 24 h treatment with subamolide B (0~20 μM) was assessed by semiquantitative RT-PCR analysis. β-actin was used as the loading control. […] ATF6 transcriptional activity was then evaluated by luciferase activity assay. […]

IC50 (A375 (melanoma) cells) [µM] | IC50 [7] [µM] | IC50 [8] [µM] | IC50 [10] [µM] | Structure (SMILES) | viability at 50 µg/mL (SCC12 cells [1]; SCC12, imiquimod 50 μg/ml, 24 h, read-out: SCC12 cell viability, % of the drug-untreated control) [%] | IC50 [2] [µM] | SCC12 colony formation, % of the drug-untreated control (SCC12 cells [3]; 10 μM) [%] | SCC12 colony formation, % of the drug-untreated control (SCC12 cells [3]; 20 μM) [%] | level of apoptotic cells (percentage of all cell populations) (SCC12 cells [4]; cotreated with z-VAD-fmk 20 μM) [%] | level of apoptotic cells (percentage of all cell populations) (SCC12 cells [4]; without z-VAD-fmk) [%] | IC50 [5] [µM] | IC50 [6] [µM] | viability at 20 µM (SCC12 cells [1]; SCC12, subamolide B 20 μM (6.897 μg/ml), 24 h, read-out: SCC12 cell viability, % of the drug-untreated control) [%] | IC50 (SCC12 cells [1]; SCC12, 24 h treatment, read-out: IC50 (SCC12 cytotoxicity)) | IC50 [9] [µM] | IC50 [11] [µM] | fold induction at 10 µM [12]
 |  |  |  | CC(C)Cn1cnc2c(N)nc3ccccc3c21 [imiquimod, reference compound] | 65 ± 4.32 |  |  |  |  |  |  |  |  |  |  |  | 
17.6 | 9.12 | > 20 | 13.3 | CCCCCCCCCCCCC/C=C1/C(=O)O[C@@](C)(OC)[C@@H]1O [subamolide B, (3E,4R,5R)-3-tetradecylidene-4-hydroxy-5-methoxy-5-methyl-butanolide] |  | > 20 | 58.93 ± 2.40 | 28.20 ± 10.87 | 18.6 ± 0.42 | 32.55 ± 3.65 | > 20 | > 20 | 50.5 ± 5.89 | 6.9 µg/mL and 20.3 µM | > 20 | > 20 | 16.1 ± 2.06
